Measured values taken from patent publication US10894777B2, “TG2 inhibitor piperazine compounds and uses thereof” (UNIVERSITY OF OTTAWA, priority 2016, dated 2021).

Tests used:
TG2 = target: T1, TG2 (Homo sapiens, UniProt P21980); assay: In vitro GTP binding assay after inhibition of hTG2 (BODIPY GTP-γ-S); conditions: inhibitor 2×KI, 30 min; 3 μM GTP-γ-S FL BODIPY
T1 sequence (P21980 1-687): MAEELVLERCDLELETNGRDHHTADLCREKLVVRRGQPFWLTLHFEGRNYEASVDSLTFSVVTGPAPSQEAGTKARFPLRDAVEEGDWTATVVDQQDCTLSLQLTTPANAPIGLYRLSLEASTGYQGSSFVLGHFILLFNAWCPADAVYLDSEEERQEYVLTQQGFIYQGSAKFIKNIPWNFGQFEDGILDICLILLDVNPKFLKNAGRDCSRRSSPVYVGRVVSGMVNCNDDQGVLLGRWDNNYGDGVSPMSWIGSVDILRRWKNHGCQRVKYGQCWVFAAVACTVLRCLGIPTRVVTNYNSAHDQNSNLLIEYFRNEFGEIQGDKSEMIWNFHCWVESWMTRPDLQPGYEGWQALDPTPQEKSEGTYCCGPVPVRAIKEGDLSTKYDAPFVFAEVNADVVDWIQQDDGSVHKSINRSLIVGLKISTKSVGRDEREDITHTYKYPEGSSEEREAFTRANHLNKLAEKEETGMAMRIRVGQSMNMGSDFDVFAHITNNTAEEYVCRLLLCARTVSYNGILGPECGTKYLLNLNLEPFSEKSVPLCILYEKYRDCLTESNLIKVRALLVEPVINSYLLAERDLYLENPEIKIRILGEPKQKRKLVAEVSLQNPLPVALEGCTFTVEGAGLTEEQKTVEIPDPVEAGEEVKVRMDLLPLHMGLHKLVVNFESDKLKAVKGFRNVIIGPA
Method: In vitro GTP binding assay. GTP binding was measured using a method similar to that reported previously (McEwen, D. P. et al., Anal. Biochem. (2001), 291 (1): 109-117). […] The buffer was then exchanged to 100 mM MOPS (pH=7.0), 1 mM EGTA and 5 mM MgCl2 to remove calcium using a 10-kDa molecular weight cut off membrane. The fluorescent GTP analog was then added to give a final concentration of 3.0 μM and fluorescence was then measured on a microplate reader after 10 minutes of incubation (Ex/Em: 490/520 nm).

NFκB = NFκB subcellular distribution (cell fractionation, immunoblot), ECS cells; assay type: cell-based, human; conditions: 8 day spheroids, 20 μM, 48 h
Method: In (A), it is shown that ECS cells have reduced NFκB-p65 levels. SCC-13 cells (40,000) were grown in spheroid medium in attached (monolayer) and non-attached (spheroid, ECS cells) conditions. Lysates were prepared after 10 d in culture for electrophoresis and detection of indicated epitopes. In (B). […] and SCC13-TG2-shRNA2 cells were grown in spheroid medium as monolayers. After 10 d in culture, lysates were collected for detection of TG2 and NFκB-p65. In (C), SCC-13 cells were electroporated with control-, NFκB-p65- or TG2-siRNA and then cultured as monolayers in spheroid medium. After 72 h extracts were prepared to assay TG2, NFκB-p65 and EMT markers. In (D), SCC-13 cells were electroporated with empty vector Control- or TG2-siRNA and plated in monolayer culture. The following day cells were fixed, permeabilized and incubated with antibodies specific for the indicated epitopes. […] In (E), an equal number of cell equivalents of total (T), nuclear (N), and cytosolic (C) extract, prepared from SCC13-Control-shRNA and SCC13-TG2-shRNA2 (TG2 knockdown) cells, was electrophoresed for immunoblot detection of NFκB, histone 3 (nuclear marker) and β-actin (cytoplasmic marker). […] In (F), total (T), nuclear (N), and cytosolic (C) extract was prepared from 8 day spheroids (ECS cells) treated with 0 or 20 μM NC9 for 48 h. […]

| Compound | GTP binding of hTG2 after incubation with inhibitor (TG2) | cytoplasmic/nuclear distribution of NFκB (NFκB) |
| --- | --- | --- |
| C=CC(=O)NCCCC[C@H](NC(=O)OCc1ccccc1)C(=O)N1CCN(S(=O)(=O)c2cccc3c(N(C)C)cccc23)CC1 [VA4, (S)-benzyl(6-acrylamido-1-(4-((5-(dimethylamino)naphthalen-1-yl)sulfonyl)piperazin-1-yl)-1-oxohexan-2-yl)carbamate] | abolish GTP binding nearly completely |  |
| C=CC(=O)NCCCC[C@H](NC(=O)OCc1ccccc1)C(=O)NCCOCCOCCNS(=O)(=O)c1cccc2c(N(C)C)cccc12 [NC9] |  | not altered |
